Tests used:
Type in all cases: cell-based
human platelet [1] = assay: PGE2 effect on human platelet aggregation and dense granule release, light transmission aggregometry
Text: (§1) This Examples describes a study conducted to characterize the regulation of thromboxane-dependent human platelet activation by PGE2, and particularly nanomolar concentrations of PGE2. Platelets were collected from individuals and studied by light transmission aggregometry. Next, it was observed how low nanomolar concentrations of PGE2 effect aggregation and dense granule release induced by sub-maximal concentrations of an agonist of the thromboxane receptor (U46,619), thrombin, collagen, and ADP.

human platelet [2] = assay: as above; details: agonist concentrations producing full activation of the platelets (max); even micromolar PGE2; FIG. 1
thromboxane receptor = target: T1, thromboxane receptor (Homo sapiens, UniProt P21731); assay: U46,619 dose-response (aggregation, ATP release) in responder and non-responder samples; details: responders vs non-responders; FIG. 4
T1 construct: Platelets were collected from individuals and studied by light transmission aggregometry; endogenous in cells; host or cells: human platelets from responder and non-responder individuals
T1 sequence (P21731 1-343): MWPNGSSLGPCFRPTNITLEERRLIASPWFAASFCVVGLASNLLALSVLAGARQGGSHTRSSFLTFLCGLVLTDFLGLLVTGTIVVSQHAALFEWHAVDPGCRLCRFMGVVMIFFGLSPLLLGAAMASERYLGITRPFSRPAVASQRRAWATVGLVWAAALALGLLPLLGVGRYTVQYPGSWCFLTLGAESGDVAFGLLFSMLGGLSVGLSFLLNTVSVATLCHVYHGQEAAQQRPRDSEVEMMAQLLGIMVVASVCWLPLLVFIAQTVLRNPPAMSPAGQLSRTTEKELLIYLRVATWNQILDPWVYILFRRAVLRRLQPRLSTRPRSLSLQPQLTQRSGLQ
Text: FIG. 4 includes plots of maximal aggregation (left) and ATP release (right) as a function of U46,610 concentration for both responder and non-responder individuals, and showing that there is little to no difference in U46,619 dose-response between the different phenotypic groups.
as §1
Samples from responders and non-responders were also exposed to different doses of U46,619.

difference in U46,619 dose-response between phenotypic groups (thromboxane receptor) | SMILES | individuals with strong inhibition of platelet activity in response to PGE2 (human platelet [1]; 76 individuals, FIG. 2) | individuals without significant inhibition of platelet aggregation in response to PGE2 (non-responders) (human platelet [1]; 76 individuals, FIG. 2) [%] | partial responders to PGE2 (human platelet [1]; 76 individuals, FIG. 2) [%] | effect on ADP-induced aggregation (human platelet [1]; FIG. 5) | effect on U46,610 aggregation (human platelet [1]; FIG. 5) | effect on collagen-induced aggregation (human platelet [1]; FIG. 5) | individuals in whom PGE2 affected the timing but not the final magnitude of aggregation (partial responders) (human platelet [1]; nanomolar PGE2) | individuals in whom PGE2 did not have detectable effects (nonresponders) (human platelet [1]; nanomolar PGE2) | individuals in whom PGE2 inhibits platelet aggregation (responders) (human platelet [1]; nanomolar PGE2, aggregation induced by U46,619 and PAR4-AP) | aggregation and dense granule release induced by sub-maximal U46,619 and thrombin (human platelet [1]; nanomolar PGE2, responder populations, FIG. 3) | effect on aggregation or granule release (human platelet [2])
 | CCCCC[C@H](O)/C=C/[C@H]1[C@H](O)CC(=O)[C@@H]1C/C=C\CCCC(=O)O [PGE2, prostaglandin E2] | approximately 28% | 55 | 17 | no effect | did have an effect | no effect | approximately 31% | approximately 42% | approximately 26% | capable of preventing aggregation and dense granule release | did not affect either aggregation or granule release
No significant no difference | CCCCC[C@H](O)/C=C/[C@@H]1[C@@H](C/C=C\CCCC(=O)O)[C@H]2CO[C@@H]1C2 [U46,619] |  |  |  |  |  |  |  |  |  |  | 
